These are literature values, as cited in patent US20260117185A1, “ENHANCEMENT OF FIBROBLAST PLASTICITY FOR TREATMENT OF DISC DEGENERATION” (SPINALCYTE, LLC, priority 2018, published 2026).

Structures are written as SMILES.

The subject of one data set is mesenchymal stem cells. The note with it: culture of cells with valproic acid.
Data set [1] relates to in vitro pre-mature senescence model. As to conditions: valproic acid treatment.
Where [2] appears, read: through the suppression of the p16/p21 pathway.

Regarding `CCCC(CCC)C(=O)O` [valproic acid], the “immune regulatory and metabolic properties of mesenchymal stem cells” value in the data set with mesenchymal stem cells is “enhanced immune regulatory and metabolic properties”. Also, in data set [1], the “G2/M phase blockage derived from the senescence stress” value was “inhibited the G2/M phase blockage”. In data set [1] (setting [2]), the apoptosis entry is on record as “inhibited apoptosis” and the cell proliferation entry is given as “increased cell proliferation”.
